Like-named read-outs stand apart in the source and are kept apart here.
What was measured:
[1] = Pharmacokinetics of intraperitoneal or intravenous injection in CD1 mice; format: in vivo; conditions: for Conc. (ng/mL) Mouse 1 / Conc. (ng/mL) Mouse 2 / Conc. (ng/mL) Mouse 3 / concentration at 0.25 h / concentration at 0.5 h / concentration at 1 h / concentration at 2 h / concentration at 4 h / concentration at 8 h / concentration at 0.033 h / concentration at 0.083 h: CD1 mice plasma; for concentration at 0.25 h / concentration at 0.5 h / concentration at 1 h / concentration at 2 h / concentration at 4 h / concentration at 8 h / AUC(0-t) / half-life / concentration at 0.033 h / concentration at 0.083 h: male, CD1, mouse, plasma
Procedure, shortened: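 Male CD1 mice, 6-8 weeks old, 3 per group, dosed IV (5 s injection; 10% HP-b-CD, 40 mM sodium acetate, 40 mM NaCl, pH 4.5) or IP (5% EtOH, 5% Solutol HS15 in D5W). Serial dorsal metatarsal vein blood, terminal heart puncture; plasma analysed by LC/MS/MS after acetonitrile precipitation, calibration 1-2000 ng/mL.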

PPB = format: in vitro ADME; conditions: plasma
[2] = ip, 10 mg/kg, IP 10 mg/kg, read-out: Conc. (ng/mL) Mouse 1
[3] = ip, 10 mg/kg, IP 10 mg/kg, read-out: Conc. (ng/mL) Mouse 2
[4] = ip, 10 mg/kg, IP 10 mg/kg, read-out: Conc. (ng/mL) Mouse 3
[5] = ip, 10 mg/kg, IP 10 mg/kg, read-out: Mean
[6] = iv, 1 mg/kg, IV 1.0 mg/kg, read-out: Conc. (ng/mL) Mouse 1
[7] = iv, 1 mg/kg, IV 1.0 mg/kg, read-out: Conc. (ng/mL) Mouse 2
[8] = iv, 1 mg/kg, IV 1.0 mg/kg, read-out: Conc. (ng/mL) Mouse 3
[9] = iv, 1 mg/kg, IV 1.0 mg/kg, read-out: Mean

Conc. (ng/mL) Mouse 1 ([1]; IP 10 mg/kg, 24 h): BLOQ
Conc. (ng/mL) Mouse 2 ([1]; IP 10 mg/kg, 24 h): BLOQ
Conc. (ng/mL) Mouse 3 ([1]; IP 10 mg/kg, 24 h): BLOQ
Conc. (ng/mL) Mouse 1 ([1]; IV 1.0 mg/kg, 4 h): BLOQ
Conc. (ng/mL) Mouse 3 ([1]; IV 1.0 mg/kg, 4 h): BLOQ
Conc. (ng/mL) Mouse 1 ([1]; IV 1.0 mg/kg, 8 h): BLOQ
Conc. (ng/mL) Mouse 2 ([1]; IV 1.0 mg/kg, 8 h): BLOQ
Conc. (ng/mL) Mouse 3 ([1]; IV 1.0 mg/kg, 8 h): BLOQ
Conc. (ng/mL) Mouse 1 ([1]; IV 1.0 mg/kg, 24 h): BLOQ
Conc. (ng/mL) Mouse 2 ([1]; IV 1.0 mg/kg, 24 h): BLOQ
Conc. (ng/mL) Mouse 3 ([1]; IV 1.0 mg/kg, 24 h): BLOQ
concentration at 0.25 h [1, 2]: 800 ng/mL
concentration at 0.25 h [1, 3]: 407 ng/mL
concentration at 0.25 h [1, 4]: 271 ng/mL
concentration at 0.25 h [1, 5]: 493 ng/mL
concentration at 0.5 h [1, 2]: 860 ng/mL
concentration at 0.5 h [1, 3]: 523 ng/mL
concentration at 0.5 h [1, 4]: 335 ng/mL
concentration at 0.5 h [1, 5]: 573 ng/mL
concentration at 1 h [1, 2]: 1040 ng/mL
concentration at 1 h [1, 3]: 1520 ng/mL
concentration at 1 h [1, 4]: 1780 ng/mL
concentration at 1 h [1, 5]: 1450 ng/mL
concentration at 2 h [1, 2]: 1630 ng/mL
concentration at 2 h [1, 3]: 1590 ng/mL
concentration at 2 h [1, 4]: 1180 ng/mL
concentration at 2 h [1, 5]: 1470 ng/mL
concentration at 4 h ([1]; ip, 10 mg/kg, IP 10 mg/kg, 4 h, read-out: Conc. (ng/mL) Mouse 1): 378 ng/mL
concentration at 4 h ([1]; ip, 10 mg/kg, IP 10 mg/kg, 4 h, read-out: Conc. (ng/mL) Mouse 2): 1090 ng/mL
concentration at 4 h ([1]; ip, 10 mg/kg, IP 10 mg/kg, 4 h, read-out: Conc. (ng/mL) Mouse 3): 1250 ng/mL
concentration at 4 h ([1]; ip, 10 mg/kg, IP 10 mg/kg, 4 h, read-out: Mean): 906 ng/mL
concentration at 8 h ([1]; ip, 10 mg/kg, IP 10 mg/kg, 8 h, read-out: Conc. (ng/mL) Mouse 1): 24.1 ng/mL
concentration at 8 h ([1]; ip, 10 mg/kg, IP 10 mg/kg, 8 h, read-out: Conc. (ng/mL) Mouse 2): 145 ng/mL
concentration at 8 h ([1]; ip, 10 mg/kg, IP 10 mg/kg, 8 h, read-out: Conc. (ng/mL) Mouse 3): 77.1 ng/mL
concentration at 8 h ([1]; ip, 10 mg/kg, IP 10 mg/kg, 8 h, read-out: Mean): 82 ng/mL
AUC(0-t) ([1]; ip, 10 mg/kg, read-out: AUClast (h * ng/mL) IP): 6.5 µg·h/mL
half-life ([1]; ip, 10 mg/kg, read-out: T ½ (h) IP (converted)): 1.22 h
concentration at 0.033 h [1, 6]: 2100 ng/mL
concentration at 0.033 h [1, 7]: 1800 ng/mL
concentration at 0.033 h [1, 8]: 2310 ng/mL
concentration at 0.033 h [1, 9]: 2070 ng/mL
concentration at 0.083 h [1, 6]: 356 ng/mL
concentration at 0.083 h [1, 7]: 303 ng/mL
concentration at 0.083 h [1, 8]: 432 ng/mL
concentration at 0.083 h [1, 9]: 364 ng/mL
concentration at 0.25 h [1, 6]: 50.1 ng/mL
concentration at 0.25 h [1, 7]: 47.7 ng/mL
concentration at 0.25 h [1, 8]: 47 ng/mL
concentration at 0.25 h [1, 9]: 48.3 ng/mL
concentration at 0.5 h [1, 6]: 20.9 ng/mL
concentration at 0.5 h [1, 7]: 28.6 ng/mL
concentration at 0.5 h [1, 8]: 27.7 ng/mL
concentration at 0.5 h [1, 9]: 25.7 ng/mL
concentration at 1 h [1, 6]: 8.68 ng/mL
concentration at 1 h [1, 7]: 11.6 ng/mL
concentration at 1 h [1, 8]: 9.52 ng/mL
concentration at 1 h [1, 9]: 9.9 ng/mL
concentration at 2 h [1, 6]: 5.32 ng/mL
concentration at 2 h [1, 7]: 7.86 ng/mL
concentration at 2 h [1, 8]: 5.45 ng/mL
concentration at 2 h [1, 9]: 6.21 ng/mL
concentration at 4 h ([1]; iv, 1 mg/kg, IV 1.0 mg/kg, 4 h, read-out: Conc. (ng/mL) Mouse 2): 4.59 ng/mL
AUC(0-t) ([1]; iv, 1 mg/kg, read-out: AUClast (h * ng/mL) IV): 0.268 µg·h/mL
half-life ([1]; iv, 1 mg/kg, read-out: T ½ (h) IV (converted)): 1.26 h
fraction unbound (PPB): 0.0065
Structure (SMILES): Cc1ncsc1-c1ccc(CNC(=O)[C@@H]2C[C@@H](O)CN2C(=O)[C@@H](NC(=O)COCCCOc2ccc(Nc3ncc(C(F)(F)F)c(NCc4cccc(N(C)S(C)(=O)=O)c4)n3)cc2)C(C)(C)C)cc1 [Compound 101, (2S,4R)-1-((S)-3,3-dimethyl-2-(2-(3-(4-((4-((3-(N-methylmethylsulfonamido)benzyl)amino)-5-(trifluoromethyl)pyrimidin-2-yl)amino)phenoxy)propoxy)acetamido)butanoyl)-4-hydroxy-N-(4-(4-methylthiazol-5-yl)benzyl)pyrrolidine-2-carboxamide]
